# Data taken from article PMC8590286, “A novel CD123-targeted therapeutic peptide loaded by micellar delivery system combats refractory acute myeloid leukemia” (Journal of Hematology & Oncology, 2021).
# Counter-ions that a name gives are not always drawn.
# Tests used:
# [1] = test system: AE & CKIT^D816V mice; test: Survival experiments of Ara-C or HHT in AE & CKIT^D816V AML mice; type: in vivo, mouse; details: for median survival of AML mice treated with Ara-C: 25, 50 and 100 mg/kg i.p. daily for 4 days from day 9, versus Con, n=9; for median survival of AML mice treated with HHT: 250 μg/kg i.p. every 2 days from day 9, n=8
# Protocol: The regimen of cytarabine hydrochloride (Ara-C): On day 9 after AE & CKIT^D816V cells implantation, the mice were randomly divided into 4 groups (n=9) including Con (5% glucose), 25, 50 and 100 mg/kg Ara-C. All mice were treated with daily intraperitoneal (i.p.) injections for 4 days and stopped. The survival of the mice was recorded every day.
# The regimen of homoharringtonine (HHT): On day 9 after AE & CKIT^D816V cells implantation, the mice were randomly divided into 2 groups (n=8) and i.p. injected with 5% glucose and 250 μg/kg HHT. The administration was given every 2 days. The survival of the mice was recorded every day.
# Fig. S7. Therapeutic efficacy of Ara-C or HHT in AE & CKIT^D816V mice. (A) The median survival of AML mice treated with Ara-C was not prolonged compared with the Con group (n=9). […] On day 9 after AE & CKIT^D816V cells implantation, AML mice were treated with i.p. injection of 5% glucose, Ara-C (25, 50 and 100 mg/kg) or HHT (250 μg/kg) as the regimens described.
# [2] = test system: chronic myeloid leukemia cell line K562 cells; test: Flow cytometry binding of FITC-labeled peptide to K562 cells; type: cell-based, human; details: 0.1 and 0.5 μM, 0.5 h
# Protocol: (§1) Fig. S1. Affinity of PO-6 and ^mPO-6 to different leukemia cells. The MOLM-13, K562 or HL-60 cells was incubated with PO-6 or ^mPO-6 at 0.1 and 0.5 μM for 0.5 h. Resulting cells were collected and subjected to C6 Accuri® flow cytometer.
# (§2) MOLM-13, HL-60 and K562 cells of 4×10^5/mL were incubated with FITC-labeled PO-6 or ^mPO-6 at 0.1 μM and 0.5 μM for 0.5 h. After twice washed with PBS, subjected to C6 Accuri® flow cytometer (Accuri Cytometers, Ann Arbor, MI) and 1×10^4 cells were collected. Acquired data were analyzed by CFlow Plus software.
# [3] = test system: CD123^− AML cell line HL-60; test: Flow cytometry binding of FITC-labeled peptide to HL-60 cells; type: cell-based, human; details: 0.1 and 0.5 μM, 0.5 h
# Protocol: as §1, §2
# [4] = test system: CD123^+ AML cell line MOLM-13 cells; test: Flow cytometry binding of FITC-labeled peptide/micelles to MOLM-13 cells; type: cell-based, human; details: 0.1 and 0.5 μM, 0.5 h
# Protocol: Fig. 1 A Affinity of ^mPO-6 to MOLM-13 cells incubated at 0.1 and 0.5 μM for 0.5 h. B Images of ^mPO-6 bound with MOLM-13 cells at 0.1 μM for 0.5 h obtained from the laser confocal microscopy. C Effects of ^mPO-6 on the cell viability in the presence of IL-3 (n = 4). D and E Effects of ^mPO-6 on the cell viability of the primary AML blasts.
# as §1, §2
compound,measurement,setting,value
Nc1ccn([C@@H]2O[C@H](CO)[C@@H](O)[C@@H]2O)c(=O)n1 [cytarabine hydrochloride],median survival of AML mice treated with Ara-C,[1],did not respond
same,median survival of AML mice treated with Ara-C,[1]; listed as Ara-C,not prolonged
COC(=O)C[C@](O)(CCCC(C)(C)O)C(=O)O[C@@H]1C(OC)=C[C@]23CCCN2CCc2cc4c(cc2[C@H]13)OCO4 [homoharringtonine],median survival of AML mice treated with HHT,[1],did not respond
same,median survival of AML mice treated with HHT,[1]; listed as HHT,did not prolong the AML mice median survival significantly
DDDYDTRAQGTDIGCDFRRISDDD [PO-6],binding to K562 cells,[2],weakly bind
same,binding to HL-60 cells,[3],weakly bind
same,binding to MOLM-13 cells,[4],effectively bind
